{
  "source": "paper PMC2229574",
  "about": "(The Journal of General Physiology, 2003)",
  "key": {"[1]": {"system": "hybrid AChR (one wild-type α-subunit and one D97A α-subunit), hybrid 2", "conditions": "20 mM choline"}, "[2]": {"biological_target": "T1, wild-type mouse AChR (α2βδɛ) (Mus musculus, UniProt P02716+P04756+P20782)", "T1 sequence (P04756 21-457)": "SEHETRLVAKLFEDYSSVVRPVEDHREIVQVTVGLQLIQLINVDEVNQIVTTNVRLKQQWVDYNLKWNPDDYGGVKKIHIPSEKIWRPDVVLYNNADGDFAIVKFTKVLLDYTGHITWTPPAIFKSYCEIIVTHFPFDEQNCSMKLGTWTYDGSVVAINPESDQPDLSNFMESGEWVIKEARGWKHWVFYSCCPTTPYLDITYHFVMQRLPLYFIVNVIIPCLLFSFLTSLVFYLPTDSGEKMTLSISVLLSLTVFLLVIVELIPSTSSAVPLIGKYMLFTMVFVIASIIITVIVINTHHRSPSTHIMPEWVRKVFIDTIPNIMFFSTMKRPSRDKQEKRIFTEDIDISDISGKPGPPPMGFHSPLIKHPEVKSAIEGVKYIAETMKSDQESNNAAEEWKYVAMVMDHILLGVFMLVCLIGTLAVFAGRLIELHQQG", "T1 sequence (P09690 24-501 partner)": "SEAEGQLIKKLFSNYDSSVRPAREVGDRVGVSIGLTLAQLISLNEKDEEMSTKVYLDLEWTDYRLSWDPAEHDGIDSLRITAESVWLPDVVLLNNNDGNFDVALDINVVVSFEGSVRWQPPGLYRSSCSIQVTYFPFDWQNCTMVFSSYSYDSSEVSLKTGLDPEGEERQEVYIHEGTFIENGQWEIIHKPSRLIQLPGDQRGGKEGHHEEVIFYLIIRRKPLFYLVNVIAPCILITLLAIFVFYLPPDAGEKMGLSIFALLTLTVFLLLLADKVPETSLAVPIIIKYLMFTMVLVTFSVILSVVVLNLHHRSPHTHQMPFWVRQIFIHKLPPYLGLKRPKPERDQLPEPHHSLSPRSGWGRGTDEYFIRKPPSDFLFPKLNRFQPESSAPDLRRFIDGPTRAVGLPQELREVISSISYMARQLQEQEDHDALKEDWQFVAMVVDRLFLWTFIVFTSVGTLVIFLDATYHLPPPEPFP", "T1 sequence (P02716 25-520)": "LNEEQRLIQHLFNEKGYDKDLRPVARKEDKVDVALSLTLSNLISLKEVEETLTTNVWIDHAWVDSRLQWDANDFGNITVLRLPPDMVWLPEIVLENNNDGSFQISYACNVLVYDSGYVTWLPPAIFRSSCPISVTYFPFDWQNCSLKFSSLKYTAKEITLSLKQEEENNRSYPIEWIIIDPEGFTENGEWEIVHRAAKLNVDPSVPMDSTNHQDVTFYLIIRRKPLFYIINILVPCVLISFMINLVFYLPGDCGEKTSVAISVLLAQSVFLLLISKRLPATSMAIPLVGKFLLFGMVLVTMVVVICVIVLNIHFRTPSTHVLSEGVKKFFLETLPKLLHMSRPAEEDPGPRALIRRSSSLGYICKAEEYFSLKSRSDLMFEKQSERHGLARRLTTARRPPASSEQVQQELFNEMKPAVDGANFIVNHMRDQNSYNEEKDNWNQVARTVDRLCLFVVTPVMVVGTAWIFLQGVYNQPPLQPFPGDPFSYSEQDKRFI", "T1 sequence (P20782 21-493)": "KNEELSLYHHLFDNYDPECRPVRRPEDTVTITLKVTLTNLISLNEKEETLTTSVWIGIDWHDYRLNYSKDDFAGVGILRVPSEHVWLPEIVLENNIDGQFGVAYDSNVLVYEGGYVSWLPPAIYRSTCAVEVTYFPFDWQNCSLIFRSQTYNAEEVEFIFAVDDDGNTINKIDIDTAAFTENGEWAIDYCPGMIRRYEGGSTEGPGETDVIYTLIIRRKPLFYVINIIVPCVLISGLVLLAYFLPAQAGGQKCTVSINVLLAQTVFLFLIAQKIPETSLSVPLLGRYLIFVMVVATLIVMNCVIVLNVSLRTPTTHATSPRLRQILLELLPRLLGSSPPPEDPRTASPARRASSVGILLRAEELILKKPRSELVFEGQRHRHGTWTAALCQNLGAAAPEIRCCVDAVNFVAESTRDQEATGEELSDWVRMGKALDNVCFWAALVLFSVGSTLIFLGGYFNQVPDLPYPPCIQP", "conditions": "cited from earlier work"}, "[3]": {"biological_target": "mouse AChR δ-subunit D99A (Mus musculus, UniProt P02716+P04756+P20782, D123A)", "sequence (P04756 21-457)": "as the sequence (P04756 21-457) above", "sequence (P09690 24-501 partner)": "as the sequence (P09690 24-501 partner) above", "sequence (P02716 25-520 D123A)": "as the sequence (P02716 25-520) above, with D99A counted along it", "sequence (P20782 21-493)": "as the sequence (P20782 21-493) above", "conditions": "20 mM choline"}, "[4]": {"biological_target": "mouse AChR αD97Y (Mus musculus, UniProt P02716+P04756+P20782, D117Y)", "sequence (P04756 21-457 D117Y)": "as the sequence (P04756 21-457) above, with D97Y counted along it", "sequence (P09690 24-501 partner)": "as the sequence (P09690 24-501 partner) above", "sequence (P02716 25-520)": "as the sequence (P02716 25-520) above", "sequence (P20782 21-493, stated change not applied)": "as the sequence (P20782 21-493) above"}, "[5]": {"biological_target": "mouse AChR β-subunit D97A (Mus musculus, UniProt P02716+P04756+P09690+P20782, D120A)", "sequence (P04756 21-457)": "as the sequence (P04756 21-457) above", "sequence (P09690 24-501 D120A)": "as the sequence (P09690 24-501 partner) above, with D97A counted along it", "sequence (P02716 25-520, stated change not applied)": "as the sequence (P02716 25-520) above", "sequence (P20782 21-493)": "as the sequence (P20782 21-493) above", "conditions": "20 mM choline"}, "[6]": {"biological_target": "T1, wild-type mouse AChR (α2βδɛ)", "conditions": "wt; for L2: choline (Table III / text)"}, "[7]": {"biological_target": "mouse AChR αD97A (Mus musculus, UniProt P02716+P04756+P20782, D117A)", "sequence (P04756 21-457 D117A)": "as the sequence (P04756 21-457) above, with D97A counted along it", "sequence (P09690 24-501 partner)": "as the sequence (P09690 24-501 partner) above", "sequence (P02716 25-520)": "as the sequence (P02716 25-520) above", "sequence (P20782 21-493, stated change not applied)": "as the sequence (P20782 21-493) above"}, "[8]": {"biological_target": "mouse AChR δ-subunit D99V (Mus musculus, UniProt P02716+P04756+P20782, D123V)", "sequence (P04756 21-457)": "as the sequence (P04756 21-457) above", "sequence (P09690 24-501 partner)": "as the sequence (P09690 24-501 partner) above", "sequence (P02716 25-520 D123V)": "as the sequence (P02716 25-520) above, with D99V counted along it", "sequence (P20782 21-493)": "as the sequence (P20782 21-493) above", "conditions": "20 mM choline"}, "[9]": {"biological_target": "mouse AChR αD97N (Mus musculus, UniProt P02716+P04756+P20782, D117N)", "sequence (P04756 21-457 D117N)": "as the sequence (P04756 21-457) above, with D97N counted along it", "sequence (P09690 24-501 partner)": "as the sequence (P09690 24-501 partner) above", "sequence (P02716 25-520)": "as the sequence (P02716 25-520) above", "sequence (P20782 21-493, stated change not applied)": "as the sequence (P20782 21-493) above"}, "[10]": {"biological_target": "mouse AChR αD97M (Mus musculus, UniProt P02716+P04756+P20782, D117M)", "sequence (P04756 21-457 D117M)": "as the sequence (P04756 21-457) above, with D97M counted along it", "sequence (P09690 24-501 partner)": "as the sequence (P09690 24-501 partner) above", "sequence (P02716 25-520)": "as the sequence (P02716 25-520) above", "sequence (P20782 21-493, stated change not applied)": "as the sequence (P20782 21-493) above"}, "[11]": {"biological_target": "mouse AChR αD97E (Mus musculus, UniProt P02716+P04756+P20782, D117E)", "sequence (P04756 21-457 D117E)": "as the sequence (P04756 21-457) above, with D97E counted along it", "sequence (P09690 24-501 partner)": "as the sequence (P09690 24-501 partner) above", "sequence (P02716 25-520)": "as the sequence (P02716 25-520) above", "sequence (P20782 21-493, stated change not applied)": "as the sequence (P20782 21-493) above", "conditions": "for L2: kinetic modeling"}, "[12]": {"biological_target": "mouse AChR αD97C (Mus musculus, UniProt P02716+P04756+P20782, D117C)", "sequence (P04756 21-457 D117C)": "as the sequence (P04756 21-457) above, with D97C counted along it", "sequence (P09690 24-501 partner)": "as the sequence (P09690 24-501 partner) above", "sequence (P02716 25-520)": "as the sequence (P02716 25-520) above", "sequence (P20782 21-493, stated change not applied)": "as the sequence (P20782 21-493) above"}, "[13]": {"biological_target": "mouse AChR αD97H (Mus musculus, UniProt P02716+P04756+P20782, D117H)", "sequence (P04756 21-457 D117H)": "as the sequence (P04756 21-457) above, with D97H counted along it", "sequence (P09690 24-501 partner)": "as the sequence (P09690 24-501 partner) above", "sequence (P02716 25-520)": "as the sequence (P02716 25-520) above", "sequence (P20782 21-493, stated change not applied)": "as the sequence (P20782 21-493) above", "conditions": "for L2: kinetic modeling"}, "[14]": {"conditions": "choline, Scheme I, listed as Choline"}, "[15]": {"conditions": "joint fit choline 1, 2 and 5 mM, Scheme I"}},
  "note": "“And” between values parts separate entries of the source, which are not always exact repeats. Equal entries are not always repeated. Where two headings read alike, the source gives them in different places.",
  "data": [
    {"smiles": "C[N+](C)(C)CCO", "note": "[choline]", "values": [
      {"measurement": "ΔΔG0 for channel gating, 0.59 ln(L2^wt/L2^mut)", "setting": "[1]", "result": 0.95, "unit": "kcal mol^−1"},
      {"measurement": "choline dissociation from open AChRs (value subtracted from the α2 estimate)", "setting": "[2]; ref Cymes et al., 2002", "result": 200, "unit": "s⁻¹"},
      {"measurement": "channel-opening rate constant, times slower than for ACh", "setting": "[2]; wt AChRs, ref Zhou et al., 1999, Grosman and Auerbach, 2000a", "result": 500, "unit": "times"},
      {"measurement": "α2* (apparent channel closing rate constant)", "setting": "[3]", "result": 630, "unit": "s⁻¹"},
      {"measurement": "β2 (channel opening rate constant)", "setting": "[3]", "result": 146, "unit": "s⁻¹"},
      {"measurement": "α2 (diliganded channel closing rate constant)", "setting": "[4]; 0.4 mM choline", "result": "1,992 s^−1"},
      {"measurement": "β2 (diliganded channel opening rate constant)", "setting": "[4]; 20 mM choline", "result": "1,396 s^−1"},
      {"measurement": "L2 (diliganded gating equilibrium constant, β2/α2)", "setting": "[4]; choline", "result": 0.701},
      {"measurement": "L2-ratio (mut/wt)", "setting": "[4]; choline", "result": 14.72},
      {"measurement": "α2* (apparent channel closing rate constant)", "setting": "[5]", "result": "1,320 s^−1"},
      {"measurement": "β2 (channel opening rate constant)", "setting": "[5]", "result": 72, "unit": "s⁻¹"},
      {"measurement": "α2 (diliganded channel closing rate constant)", "setting": "[6]; 0.4 mM choline", "result": "2,100 s^−1"},
      {"measurement": "β2 (diliganded channel opening rate constant)", "setting": "[6]; 20 mM choline", "result": 100, "unit": "s⁻¹"},
      {"measurement": "β2 (channel opening rate constant)", "setting": "[6]; 20 mM choline (Table VIII)", "result": 100, "unit": "s⁻¹"},
      {"measurement": "α2* (apparent channel closing rate constant)", "setting": "[6]; 20 mM choline, ∼2-fold smaller than α2 because of channel block", "result": "1,100 s^−1"},
      {"measurement": "L2 (diliganded gating equilibrium constant, β2/α2)", "setting": "[6]; choline", "result": 0.048},
      {"measurement": "β2", "setting": "[6]; choline (Table III / Fig. 4)", "result": 100, "unit": "s⁻¹"},
      {"measurement": "L2", "setting": "[6]", "result": 0.05},
      {"measurement": "L2", "setting": "[6]; listed as Choline", "result": 0.047},
      {"measurement": "α2", "setting": "[6]; choline (Table III)", "result": "2,100 s^−1"},
      {"measurement": "ΔΔG0 for channel gating, 0.59 ln(L2^wt/L2^mut)", "setting": "[7]; double αD97A mutant, 20 mM choline", "result": 3.09, "unit": "kcal mol^−1"},
      {"measurement": "α2 (diliganded channel closing rate constant)", "setting": "[7]; αD97A, 0.4 mM choline", "result": "1,719 s^−1"},
      {"measurement": "β2 (diliganded channel opening rate constant)", "setting": "[7]; αD97A, 20 mM choline", "result": "13,793 s^−1"},
      {"measurement": "L2 (diliganded gating equilibrium constant, β2/α2)", "setting": "[7]; αD97A, choline", "result": 8.023},
      {"measurement": "L2-ratio (mut/wt)", "setting": "[7]; αD97A, choline", "result": 168},
      {"measurement": "L2-ratio (mut/wt)", "setting": "[7]; αD97A, choline, listed as Choline", "result": 168.50},
      {"measurement": "α2* (apparent channel closing rate constant)", "setting": "[8]", "result": 561, "unit": "s⁻¹"},
      {"measurement": "β2 (channel opening rate constant)", "setting": "[8]", "result": 117, "unit": "s⁻¹"},
      {"measurement": "α2 (diliganded channel closing rate constant)", "setting": "[9]; 0.4 mM choline", "result": "2,379 s^−1"},
      {"measurement": "β2 (diliganded channel opening rate constant)", "setting": "[9]; 20 mM choline", "result": 268, "unit": "s⁻¹"},
      {"measurement": "L2 (diliganded gating equilibrium constant, β2/α2)", "setting": "[9]; choline", "result": 0.113},
      {"measurement": "L2-ratio (mut/wt)", "setting": "[9]; choline", "result": 2.37},
      {"measurement": "α2 (diliganded channel closing rate constant)", "setting": "[10]; 0.4 mM choline", "result": "2,255 s^−1"},
      {"measurement": "β2 (diliganded channel opening rate constant)", "setting": "[10]; 20 mM choline", "result": 835, "unit": "s⁻¹"},
      {"measurement": "L2 (diliganded gating equilibrium constant, β2/α2)", "setting": "[10]; choline", "result": 0.370},
      {"measurement": "L2-ratio (mut/wt)", "setting": "[10]; choline", "result": 7.78},
      {"measurement": "α2 (diliganded channel closing rate constant)", "setting": "[11]; 0.4 mM choline", "result": "2,076 s^−1"},
      {"measurement": "β2 (diliganded channel opening rate constant)", "setting": "[11]; 20 mM choline", "result": "2,967 s^−1"},
      {"measurement": "L2 (diliganded gating equilibrium constant, β2/α2)", "setting": "[11]; choline", "result": 1.429},
      {"measurement": "β2 from saturation of the effective opening rate", "setting": "[11]; choline, fit by Eq. 1", "result": "2,875 s^−1"},
      {"measurement": "L2 (equilibrium gating constant) from Popen dose–response analysis", "setting": "[11]; choline, fit by Eq. 2", "result": "2.9 ± 0.7 and 2.9"},
      {"measurement": "L2", "setting": "[11]; choline, Scheme I", "result": "1.3 ± 0.2"},
      {"measurement": "L2", "setting": "[11]; [14]", "result": "1.31 ± 0.21"},
      {"measurement": "α2", "setting": "[11]; [15]", "result": "2,293 ± 214 s^−1"},
      {"measurement": "β2", "setting": "[11]; [15]", "result": "3,024 ± 131 s^−1"},
      {"measurement": "α2 (diliganded channel closing rate constant)", "setting": "[12]; 0.4 mM choline", "result": "2,172 s^−1"},
      {"measurement": "β2 (diliganded channel opening rate constant)", "setting": "[12]; 20 mM choline", "result": 531, "unit": "s⁻¹"},
      {"measurement": "L2 (diliganded gating equilibrium constant, β2/α2)", "setting": "[12]; choline", "result": 0.244},
      {"measurement": "L2-ratio (mut/wt)", "setting": "[12]; choline", "result": 5.13},
      {"measurement": "α2 (diliganded channel closing rate constant)", "setting": "[13]; 0.4 mM choline", "result": "1,938 s^−1"},
      {"measurement": "β2 (diliganded channel opening rate constant)", "setting": "[13]; 20 mM choline", "result": "1,840 s^−1"},
      {"measurement": "L2 (diliganded gating equilibrium constant, β2/α2)", "setting": "[13]; choline", "result": 0.949},
      {"measurement": "L2-ratio (mut/wt)", "setting": "[13]; choline", "result": 19.94},
      {"measurement": "L2 (equilibrium gating constant) from Popen dose–response analysis", "setting": "[13]; choline, fit by Eq. 2", "result": "1.1 ± 0.5"},
      {"measurement": "L2", "setting": "[13]; choline, Scheme I", "result": "1.2 ± 0.1"},
      {"measurement": "L2", "setting": "[13]; [14]", "result": "1.15 ± 0.14"},
      {"measurement": "α2", "setting": "[13]; [15]", "result": "2,759 ± 149 s^−1"},
      {"measurement": "β2", "setting": "[13]; [15]", "result": "3,189 ± 168 s^−1"}
    ]}
  ]
}
